According to ChEMBL document CHEMBL6074654, “Inhibitors targeting the PWWP domain-containing proteins” (Eur J Med Chem, 2024):

molecular target: Histone-lysine N-methyltransferase, H3 lysine-36 specific (Homo sapiens, UniProt Q96L73); experiment: Inhibition of NSD1-SET (unknown origin)
Sequence (Q96L73 whole entry): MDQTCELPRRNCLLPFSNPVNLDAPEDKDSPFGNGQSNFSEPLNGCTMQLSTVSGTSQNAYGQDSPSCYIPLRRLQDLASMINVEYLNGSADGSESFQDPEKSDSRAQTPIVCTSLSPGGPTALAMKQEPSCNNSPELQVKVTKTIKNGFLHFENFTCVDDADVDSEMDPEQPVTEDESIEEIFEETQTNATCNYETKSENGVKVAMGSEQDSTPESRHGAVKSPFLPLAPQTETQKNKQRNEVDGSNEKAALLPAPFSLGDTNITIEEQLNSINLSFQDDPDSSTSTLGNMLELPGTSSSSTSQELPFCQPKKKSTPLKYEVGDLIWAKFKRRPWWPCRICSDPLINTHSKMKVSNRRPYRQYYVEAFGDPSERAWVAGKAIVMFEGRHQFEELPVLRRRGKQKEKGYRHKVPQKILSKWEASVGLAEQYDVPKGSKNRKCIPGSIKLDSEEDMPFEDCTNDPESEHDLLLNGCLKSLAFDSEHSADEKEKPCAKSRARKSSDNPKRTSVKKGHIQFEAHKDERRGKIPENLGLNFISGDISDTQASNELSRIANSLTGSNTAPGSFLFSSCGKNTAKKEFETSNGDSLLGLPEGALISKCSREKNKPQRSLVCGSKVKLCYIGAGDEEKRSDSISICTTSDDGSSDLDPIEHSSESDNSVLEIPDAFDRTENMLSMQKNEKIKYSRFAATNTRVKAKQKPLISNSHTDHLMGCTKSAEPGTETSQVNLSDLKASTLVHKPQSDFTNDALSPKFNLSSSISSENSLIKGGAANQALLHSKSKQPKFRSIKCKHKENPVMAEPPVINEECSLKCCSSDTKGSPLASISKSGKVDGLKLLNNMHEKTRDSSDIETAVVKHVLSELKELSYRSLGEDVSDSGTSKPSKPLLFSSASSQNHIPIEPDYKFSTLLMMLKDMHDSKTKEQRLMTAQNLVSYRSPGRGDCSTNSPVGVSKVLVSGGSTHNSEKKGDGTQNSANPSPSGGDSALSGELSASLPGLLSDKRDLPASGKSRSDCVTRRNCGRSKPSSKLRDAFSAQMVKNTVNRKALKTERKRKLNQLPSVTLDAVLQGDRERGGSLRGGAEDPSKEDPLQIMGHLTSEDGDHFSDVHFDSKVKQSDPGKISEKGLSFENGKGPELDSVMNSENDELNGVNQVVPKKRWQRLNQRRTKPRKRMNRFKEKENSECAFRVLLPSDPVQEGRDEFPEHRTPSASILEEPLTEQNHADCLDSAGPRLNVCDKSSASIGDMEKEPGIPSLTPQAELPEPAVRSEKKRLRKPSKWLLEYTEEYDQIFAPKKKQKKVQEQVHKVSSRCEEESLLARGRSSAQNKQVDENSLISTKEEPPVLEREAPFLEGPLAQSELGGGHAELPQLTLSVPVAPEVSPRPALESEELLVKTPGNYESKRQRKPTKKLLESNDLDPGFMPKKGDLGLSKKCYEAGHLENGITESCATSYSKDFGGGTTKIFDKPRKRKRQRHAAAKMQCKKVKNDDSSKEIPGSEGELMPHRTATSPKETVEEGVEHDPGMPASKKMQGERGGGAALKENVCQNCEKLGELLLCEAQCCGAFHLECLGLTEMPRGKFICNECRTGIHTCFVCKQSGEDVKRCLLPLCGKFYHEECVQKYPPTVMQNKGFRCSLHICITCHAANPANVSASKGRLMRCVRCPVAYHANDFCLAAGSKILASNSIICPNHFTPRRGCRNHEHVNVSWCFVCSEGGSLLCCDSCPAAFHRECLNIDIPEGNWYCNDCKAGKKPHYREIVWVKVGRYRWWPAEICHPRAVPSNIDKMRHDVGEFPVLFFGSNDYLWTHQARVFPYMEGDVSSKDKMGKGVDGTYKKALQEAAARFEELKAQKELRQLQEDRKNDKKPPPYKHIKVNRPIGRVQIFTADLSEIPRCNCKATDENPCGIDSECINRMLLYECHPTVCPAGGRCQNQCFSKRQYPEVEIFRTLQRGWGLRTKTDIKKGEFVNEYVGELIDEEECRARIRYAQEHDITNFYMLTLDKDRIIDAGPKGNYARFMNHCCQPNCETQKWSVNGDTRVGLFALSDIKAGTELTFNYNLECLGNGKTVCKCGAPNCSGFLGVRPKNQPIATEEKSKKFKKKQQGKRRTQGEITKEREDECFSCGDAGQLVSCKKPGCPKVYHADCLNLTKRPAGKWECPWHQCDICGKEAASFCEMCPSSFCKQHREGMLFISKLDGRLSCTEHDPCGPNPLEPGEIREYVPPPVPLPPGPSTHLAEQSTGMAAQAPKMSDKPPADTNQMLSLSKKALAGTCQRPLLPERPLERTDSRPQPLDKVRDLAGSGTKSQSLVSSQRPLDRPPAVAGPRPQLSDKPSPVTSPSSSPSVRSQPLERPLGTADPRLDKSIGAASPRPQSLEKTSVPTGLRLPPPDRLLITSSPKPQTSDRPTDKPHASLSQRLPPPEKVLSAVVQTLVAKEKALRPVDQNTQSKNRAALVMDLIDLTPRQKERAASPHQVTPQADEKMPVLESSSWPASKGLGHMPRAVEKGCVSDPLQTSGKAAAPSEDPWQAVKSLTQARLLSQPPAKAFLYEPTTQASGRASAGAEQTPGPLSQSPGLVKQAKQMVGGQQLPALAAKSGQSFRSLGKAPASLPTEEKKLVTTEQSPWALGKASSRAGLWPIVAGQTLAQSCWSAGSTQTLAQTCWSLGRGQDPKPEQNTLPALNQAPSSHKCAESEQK

Going from CC1=CC(=O)c2c(O)cccc2C1=O [PLUMBAGIN] to O=C1C=CC(=O)c2ccccc21 [NAPHTHOQUINONE], the IC50 falls from 5.7 µM to 2 µM (2.9-fold).

COc1cc(NC(C)CCCN)c2ncccc2c1 (configuration not stated) [PRIMAQUINE] and Cc1cc(/C=C/c2ccc3cc(N(C)C)ccc3[n+]2C)c(C)n1-c1ccccc1 are within 1.5-fold of each other in IC50: 1.8 µM for the first, 2.6 µM for the second.

CC(C)C[C@H]1C(=O)N2CCCC2[C@]2(O)O[C@](NC(=O)[C@@H]3C=C4c5cccc6[nH]cc(c56)CC4N(C)C3)(C(C)C)C(=O)N12 (some centres not stated) and CN1C[C@H](C(=O)N[C@]2(C)C[C@@]3(O)C4CCCN4C(=O)[C@H](Cc4ccccc4)N3C2=O)C=C2c3cccc4[nH]cc(c34)C[C@H]21 (some centres not stated) are within 1.5-fold of each other in IC50: 4.9 µM for the first, 5.9 µM for the second.

Compared with Cc1coc2c1C(=O)C(=O)c1c-2ccc2c1CCCC2(C)C [TANSHINONE IIA], C[C@H]1COC2=C1C(=O)C(=O)c1c2ccc2c1CCCC2(C)C [CRYPTOTANSHINONE] is 2.5-fold higher in IC50: 1.4 µM for the first, 3.5 µM for the second.

First: Cc1coc2c1C(=O)C(=O)c1c-2ccc2c(C)cccc12 [TANSHINONE I]
Second: O=C(O)c1ccccc1-c1c2cc(I)c(=O)c(I)c-2oc2c(I)c(O)c(I)cc12
The IC50 of the first is 9.1-fold higher: 3.1 µM for the first, 0.34 µM for the second.

molecular target: DNA (cytosine-5)-methyltransferase 1 (Homo sapiens, UniProt P26358); experiment: Inhibition of DNMT1 (unknown origin)

First: CCN(CC)CCNC(=O)c1ccc(NCCCCCCCCCCCCN2C(=O)c3ccccc3C2=O)cc1
Second: O=C1C=CC(=O)N1CCc1c[nH]c2ccccc12
The IC50 of the first is 3.9-fold lower: 4.9 µM for the first, 19 µM for the second.

c1ccc2c(NCCNc3ncnc4cc(OCC5CCN(CCNc6ccnc7ccccc67)CC5)ccc34)cccc2c1 gave an IC50 of 20 µM.

molecular target: Protein cereblon/Histone-lysine N-methyltransferase NSD2 (Homo sapiens, UniProt O96028+Q96SW2); experiment: PROTAC activity at CRBN/NSD2 in human VCaP cells assessed as induction of NSD2 degradation incubated for 24 hrs by immunoblot analysis; type: cell-based
Sequence (Q96SW2 whole entry, one chain of several): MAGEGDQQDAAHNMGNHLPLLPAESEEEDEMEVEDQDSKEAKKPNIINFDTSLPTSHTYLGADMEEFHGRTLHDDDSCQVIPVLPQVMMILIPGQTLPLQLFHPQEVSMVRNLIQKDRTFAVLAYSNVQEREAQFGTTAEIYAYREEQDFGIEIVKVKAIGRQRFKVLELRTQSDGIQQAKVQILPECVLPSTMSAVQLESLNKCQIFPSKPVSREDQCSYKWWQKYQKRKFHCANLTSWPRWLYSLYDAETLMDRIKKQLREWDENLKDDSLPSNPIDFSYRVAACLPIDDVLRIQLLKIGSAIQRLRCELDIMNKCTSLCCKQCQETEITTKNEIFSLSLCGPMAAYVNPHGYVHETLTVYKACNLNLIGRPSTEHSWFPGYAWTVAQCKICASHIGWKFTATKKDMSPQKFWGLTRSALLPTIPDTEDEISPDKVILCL

N=C(N)NCCC[C@H](N)C(=O)NCCCCCCNC(=O)c1ccc(NC(=O)c2ccc(CN(C(=O)c3ccc4c(c3)OCC(=O)N4)C3CC3)cc2)cc1 gave a DC50 of 1.2 µM.

molecular target: T1, Histone-lysine N-methyltransferase NSD2 (Homo sapiens, UniProt O96028); experiment: Inhibition of NSD2-SET domain (unknown origin)
T1 sequence (O96028 whole entry): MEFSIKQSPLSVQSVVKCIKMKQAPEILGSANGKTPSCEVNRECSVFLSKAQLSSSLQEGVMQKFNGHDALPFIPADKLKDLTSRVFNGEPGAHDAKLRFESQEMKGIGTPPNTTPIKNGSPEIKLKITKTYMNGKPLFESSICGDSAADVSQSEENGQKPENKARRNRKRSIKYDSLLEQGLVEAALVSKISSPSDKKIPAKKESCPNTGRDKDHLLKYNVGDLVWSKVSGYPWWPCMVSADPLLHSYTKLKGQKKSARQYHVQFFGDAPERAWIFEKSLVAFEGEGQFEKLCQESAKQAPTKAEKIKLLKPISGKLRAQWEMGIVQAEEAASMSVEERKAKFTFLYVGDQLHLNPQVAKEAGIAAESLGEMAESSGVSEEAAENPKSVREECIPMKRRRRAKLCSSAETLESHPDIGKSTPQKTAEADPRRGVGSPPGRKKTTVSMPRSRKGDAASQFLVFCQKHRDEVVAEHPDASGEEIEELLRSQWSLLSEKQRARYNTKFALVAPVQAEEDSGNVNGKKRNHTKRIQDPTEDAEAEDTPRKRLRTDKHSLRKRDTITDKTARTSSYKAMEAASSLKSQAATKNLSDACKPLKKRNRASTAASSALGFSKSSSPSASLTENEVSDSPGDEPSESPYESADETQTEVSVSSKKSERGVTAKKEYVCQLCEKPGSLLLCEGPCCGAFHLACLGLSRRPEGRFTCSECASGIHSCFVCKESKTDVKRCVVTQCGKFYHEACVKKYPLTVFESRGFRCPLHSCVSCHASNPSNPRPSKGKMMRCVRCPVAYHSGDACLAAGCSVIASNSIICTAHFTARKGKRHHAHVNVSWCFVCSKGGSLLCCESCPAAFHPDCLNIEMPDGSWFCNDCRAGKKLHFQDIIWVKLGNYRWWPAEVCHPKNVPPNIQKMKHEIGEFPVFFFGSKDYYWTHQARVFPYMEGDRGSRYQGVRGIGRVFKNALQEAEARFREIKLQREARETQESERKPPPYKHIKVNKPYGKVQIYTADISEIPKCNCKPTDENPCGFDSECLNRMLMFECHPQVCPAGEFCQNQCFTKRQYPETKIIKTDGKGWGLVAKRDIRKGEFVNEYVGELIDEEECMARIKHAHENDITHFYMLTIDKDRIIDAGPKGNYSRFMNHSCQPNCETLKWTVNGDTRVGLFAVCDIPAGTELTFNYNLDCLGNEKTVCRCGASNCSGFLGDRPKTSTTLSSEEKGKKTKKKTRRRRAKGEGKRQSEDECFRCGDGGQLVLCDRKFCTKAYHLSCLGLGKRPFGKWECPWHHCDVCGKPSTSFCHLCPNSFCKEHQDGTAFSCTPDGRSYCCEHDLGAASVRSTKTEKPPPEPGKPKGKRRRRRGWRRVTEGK

CCCN[C@@H](CC[C@H](N)C(=O)O)C[C@@H]1O[C@@H](n2cnc3c(N)ncnc32)[C@H](O)[C@@H]1O was tested, and the IC50 was 3.3 µM.

molecular target: DNA (cytosine-5)-methyltransferase 3A (Homo sapiens, UniProt Q9Y6K1); experiment: Inhibition of DNMT3A (unknown origin)
Sequence (Q9Y6K1 whole entry, looked up): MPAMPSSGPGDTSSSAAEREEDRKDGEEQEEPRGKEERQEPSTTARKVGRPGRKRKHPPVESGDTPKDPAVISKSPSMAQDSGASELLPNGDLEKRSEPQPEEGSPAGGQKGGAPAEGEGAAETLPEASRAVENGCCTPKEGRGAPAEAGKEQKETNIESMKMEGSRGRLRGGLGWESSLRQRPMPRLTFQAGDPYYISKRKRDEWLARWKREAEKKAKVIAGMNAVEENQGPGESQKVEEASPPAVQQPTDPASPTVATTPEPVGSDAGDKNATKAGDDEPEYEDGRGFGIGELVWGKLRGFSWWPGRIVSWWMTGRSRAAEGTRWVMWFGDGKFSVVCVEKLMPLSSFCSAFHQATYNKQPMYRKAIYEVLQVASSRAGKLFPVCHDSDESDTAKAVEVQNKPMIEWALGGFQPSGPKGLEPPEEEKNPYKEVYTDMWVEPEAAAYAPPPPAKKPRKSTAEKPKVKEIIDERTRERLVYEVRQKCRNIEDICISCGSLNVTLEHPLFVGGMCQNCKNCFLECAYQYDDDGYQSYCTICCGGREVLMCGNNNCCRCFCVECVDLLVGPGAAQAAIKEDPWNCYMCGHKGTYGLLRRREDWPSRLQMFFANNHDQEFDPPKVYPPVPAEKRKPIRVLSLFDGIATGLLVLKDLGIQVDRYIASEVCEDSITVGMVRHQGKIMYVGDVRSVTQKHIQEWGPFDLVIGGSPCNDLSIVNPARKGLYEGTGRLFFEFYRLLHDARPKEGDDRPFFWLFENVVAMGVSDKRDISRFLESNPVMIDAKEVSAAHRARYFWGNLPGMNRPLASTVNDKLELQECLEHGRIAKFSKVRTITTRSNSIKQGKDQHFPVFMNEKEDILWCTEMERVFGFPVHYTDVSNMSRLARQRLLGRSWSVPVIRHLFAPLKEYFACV

First: CCN(CC)CCNC(=O)c1ccc(NCCCCCCCCCCCCN2C(=O)c3ccccc3C2=O)cc1
Second: COc1ccc(Cl)cc1C(=O)NCCc1ccc(O)cc1
The IC50 of the first is 4.4-fold lower: 8.2 µM for the first, 36 µM for the second.

First: c1ccc2c(NCCNc3ncnc4cc(OCC5CCN(CCNc6ccnc7ccccc67)CC5)ccc34)cccc2c1
Second: Oc1cc(/C=N/Nc2nc3ccccc3s2)cc(O)c1O
The IC50 of the first is 5.3-fold lower: 0.3 µM for the first, 1.6 µM for the second.

First: O=C1C=CC(=O)N1CCc1c[nH]c2ccccc12
Second: O=C(O)C(Cc1c[nH]c2ccccc12)N1C(=O)C=CC1=O (configuration not stated)
The IC50 of the first is 8.8-fold lower: 3.2 µM for the first, 28 µM for the second. The first is the more potent here.

test system: U2OS; experiment: Antiproliferative activity against human U2OS cells

For O=C1COc2cc(C(=O)N(Cc3ccc(C(=O)Nc4ccncn4)cc3)C3CC3)ccc2N1, the IC50 was 1.2 µM.
